According to patent US20040072767A1, “Glucopyranose derivatives and medicaments for preventing and/or treating HIV infection diseases comprising the same as an active ingredient” (ONO PHARMACEUTICAL CO., LTD., priority 1998, published 2004):

target: T1, CXCR4 (Homo sapiens, UniProt P61073); experiment: Inhibition experiment against induction activity of SDF-1 on transitory increase of Ca ion; format: cell-based; details: CCRF-HSB-2; test compound 10 μM; SDF-1β 30 nM added 3 minutes after compound; CCRF-HSB2 human T cells loaded with Fura-2AM; read-out: Inhibition rate (%)
T1 construct: host or cells: CCRF-HSB2 human T cells
Excerpt: As described above, for screening a compound inhibiting the binding of HIV to CXCR4 which is a receptor on T cell, it is a more direct procedure to carry out the screening in an assay system using HIV virus. However, use of HIV virus on a large scale screening is not practical owing to its difficulty of handling. On the other hand, since HIV and SDF-1 are both bound to CXCR4, it is expectable that there are some common characteristics between the CXCR4 binding sites of both HIV and SDF-1 sides and the SDF-1 and HIV binding sites of CXCR4 side. Therefore, in order to find out a compound inhibiting the adsorption of HIV virus to a cell, i.e., having an activity mechanism different from the existing anti-AIDS medicaments (inhibitors of reverse transcription and inhibitors of proteases), it is possible to utilize an assay system using SDF-1 which is an original ligand for CXCR4, instead of HIV. More particularly, as an example of the screening system of a compound inhibiting the binding of SDF-1 to CXCR4, a system of measuring an effect on transitory increase of Ca ion induced by SDF-1 through CXCR4 is practicable since CXCR4 is a G protein-conjugated seven-times transmembrane-type receptor.
A human T cell expressing CXCR4, for example cells of CCRF-HSB2 (ATCC No. CCL-120.1) were suspended into RPMI-1640 medium, fetal bovine serum (FBS) (10%), Fura-2AM (5 μM) (Dojin Kagaku, cat# 343-05401), Probenecid (2.5 mM), and a HEPES buffer (20 mM, pH 7.4) so as to be 5×10^6 cell/ml, and the suspension was heated at 37° C. for 30 minutes under a light-shielded condition. Then, a 4 to 8 fold-diluted Hanks solution (1× Hanks), HEPES (20 mM, pH 7.4) and Probenecid (2.5 mM) were added thereto, and the whole was heated for another 30 minutes. After the cells were washed with a solution of 1× Hanks, HEPES (20 mM, pH 7.4) and Probenecid (2.5 mM), they were re-suspended into the solution so as to be 2×10^6 cell/ml. For the T cell on which Fura-2AM had been loaded, the transitory increase of Ca induced by the addition of recombinant SDF-1β dissolved in PBS(−) was detected by use of a suitable Ca detector. In the inhibition experiment, the inhibitory effect of a test compound (10 μM) on the transitory increase of Ca induced by the addition of recombinant SDF-1β were measured by adding SDF-1β at an amount so as to be final concentration of, for example, 30 nM at 3 minutes after the addition of the test compound. An inhibition rate (%) was calculated according to the following equation.
Inhibition rate=(Ec−Ea)/Ec×100
In the equation, each symbol means as follows: […]
Ec: measured value of the transitory increase of Ca induced by SDF-1β
Ea: measured value of the transitory increase of Ca induced by SDF-1β when a test compound was added.

T1 sequence (P61073 whole entry): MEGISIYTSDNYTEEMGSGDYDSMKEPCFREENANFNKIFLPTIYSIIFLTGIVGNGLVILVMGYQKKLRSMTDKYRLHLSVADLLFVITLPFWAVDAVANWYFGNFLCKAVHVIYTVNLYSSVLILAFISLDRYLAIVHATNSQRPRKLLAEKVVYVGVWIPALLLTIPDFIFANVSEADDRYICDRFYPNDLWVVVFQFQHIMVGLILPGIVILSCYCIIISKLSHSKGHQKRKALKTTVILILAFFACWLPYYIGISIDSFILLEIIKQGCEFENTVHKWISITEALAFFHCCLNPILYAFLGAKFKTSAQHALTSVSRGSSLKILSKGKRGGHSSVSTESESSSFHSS

Point of comparison: `CCCCCCCCCCCC(=O)O[C@H](CCCCCCCCCCC)CC(=O)N[C@H]1C(O)O[C@H](CO)[C@@H](OS(=O)(=O)O)[C@@H]1OC(=O)CCCCCCCCCCC` (stereo partly drawn) [Example 2 (5), 2-deoxy-2-[3R-(dodecanoyloxy)tetradecanoyl]amino-3-O-dodecanoyl-4-O-sulfo-D-glucopyranose], inhibition at 10 µM 99%. Against it:
- CCCCCCCCCCC[C@H](CC(=O)N[C@H]1C(O)O[C@H](CO)[C@@H](OS(=O)(=O)O)[C@@H]1OC(=O)CCCCC)OC(=O)CCCCC (stereo partly drawn) [Example 2 (3), 2-deoxy-2-[3R-(hexanoyloxy)tetradecanoyl]amino-3-O-hexanoyl-4-O-sulfo-D-glucopyranose] — lower, 79%
- CCCCCCCCCCC[C@H](CC(=O)N[C@H]1C(O)O[C@H](CO)[C@@H](OS(=O)(=O)O)[C@@H]1OC(=O)CCCCCCCCC)OC(=O)CCCCCCCCC (stereo partly drawn) [Example 2 (4), 2-deoxy-2-[3R-(decanoyloxy)tetradecanoyl]amino-3-O-decanoyl-4-O-sulfo-D-glucopyranose] — lower, 94%

same assay, conditions: test compound 10 μM; SDF-1β 30 nM added 3 minutes after compound; CCRF-HSB2 human T cells loaded with Fura-2AM

Point of comparison: `CCCCCCCCCCCCCC(=O)O[C@@H](CCCCCCCCCCC)CC(=O)N[C@H]1C(O)O[C@H](C)[C@@H](OS(=O)(=O)O)[C@@H]1OC(=O)CCCCCCCCCCCCC` (stereo partly drawn) [Example 4, 2,6-deoxy-2-[3S-(tetradecanoyloxy)tetradecanoyl]amino-3-O-tetradecanoyl-4-O-sulfo-D-glucopyranose], “Inhibition rate (%)” value 92%. Against it:
- CCCCCCCCCCC[C@@H](CC(=O)N[C@H]1C(O)O[C@H](CO)[C@@H](OS(=O)(=O)[O-])[C@@H]1OC(=O)CCCCCCCCc1ccccc1)OC(=O)CCCCCCCCc1ccccc1.[Na+] (stereo partly drawn) [Compound (1), 2-Deoxy-2-[3S-(9-phenylnonanoyloxy)tetradecanoyl]amino-3-O-(9-phenylnonanoyl)-4-O-sulfo-D-glucopyranose sodium salt] — higher, 93%
- O=C(C[C@H](CCCCCCc1ccccc1)OC(=O)CCCCCCCCc1ccccc1)N[C@H]1C(O)O[C@H](CO)[C@@H](OS(=O)(=O)O)[C@@H]1OC(=O)CCCCCCCCc1ccccc1 (stereo partly drawn) [Compound (2), 2-deoxy-2-[3S-(9-phenylnonanoyloxy)-9-phenylnonanoyl]amino-3-O-(9-phenylnonanoyl)-4-O-sulfo-D-glucopyranose] — higher, 96%
- CCCCCCCCCCC[C@@H](CC(=O)N[C@H]1C(O)O[C@H](CO)[C@@H](OS(=O)(=O)O)[C@@H]1OC(=O)CCCCCCCc1ccc(OC)cc1)OC(=O)CCCCCCCc1ccc(OC)cc1 (stereo partly drawn) [Compound (3)] — higher, 97%
- CCCCCCCCCCC[C@@H](CC(=O)N[C@H]1C(O)O[C@H](CO)[C@@H](OS(=O)(=O)O)[C@@H]1OC(=O)CCCCCCCCc1ccc(Cl)cc1)OC(=O)CCCCCCCCc1ccc(Cl)cc1 (stereo partly drawn) [Compound (4)] — higher, 96%
- CCCCCCCCCCC[C@@H](CC(=O)N[C@H]1C(O)O[C@H](CO)[C@@H](OS(=O)(=O)O)[C@@H]1OC(=O)CCCCc1ccc(CCCCC)cc1)OC(=O)CCCCc1ccc(CCCCC)cc1 (stereo partly drawn) [Compound (5), 2-deoxy-2-[3S-[5-(4-pentylphenyl)pentanoyloxy]tetradecanoyl]amino-3-O-[5-(4-pentylphenyl)pentanoyl]4-O-sulfo-D-glucopyranose] — higher, 97%
- O=C(CCCCCCCCc1ccc2ccccc2c1)N[C@H]1C(O)O[C@H](CO)[C@@H](OS(=O)(=O)O)[C@@H]1OC(=O)CCCCCCCCc1ccc2ccccc2c1 (stereo partly drawn) [Compound (6), 2-deoxy-2-[9-(2-naphthyl)nonanoyl]amino-3-O-[9-(2-naphthyl)nonanoyl]-40-sulfo-D-glucopyranose] — higher, 97%
- CCCCCCCCCCC[C@@H](CC(=O)N[C@H]1C(O)O[C@H](CO)[C@@H](OS(=O)(=O)O)[C@@H]1OC(=O)CCCCCCCOc1cc(Cl)cc(Cl)c1)OC(=O)CCCCCCCOc1cc(Cl)cc(Cl)c1 (stereo partly drawn) [Compound (7), 2-deoxy-2-[3S-[8-(3,5-dichlorophenoxy)octanoyloxy]tetradecanoyl]amino-3-O-[8-(3,5-dichlorophenoxy)octanoyl]-4-O-sulfo-D-glucopyranose] — higher, 95%
- CCCCCCCCCCCC(CC(=O)N[C@H]1COC[C@@H](OS(=O)(=O)O)[C@@H]1OC(=O)CCCCCCCCc1ccccc1)OC(=O)CCCCCCCCc1ccccc1 (stereo partly drawn) [Compound (8), 2-deoxy-2-[3RS-(9-phenylnonanoyloxy)tetradecanoyl]amino-3-O-(9-phenylnonanoyl)-4-O-sulfo-1,5-anhydro-D-xylitol] — higher, 94%
- CCCCCCCCCCCCCC(=O)O[C@H]1[C@H](OS(=O)(=O)O)[C@@H](CO)OC(O)[C@@H]1NC(=O)c1ccc(OCCCCCCCCCC)c(OCCCCCCCCCC)c1 (stereo partly drawn) [Compound (9)] — higher, 93%
- CCCCCCCCCCCCCC(=O)O[C@@H]1[C@@H](NC(=O)c2ccc(OCCCCCCCCCC)c(OCCCCCCCCCC)c2)[C@@H](OC)O[C@H](CO)[C@H]1OS(=O)(=O)O [Compound (10), methyl 2-deoxy-2-(3,4-didecyloxybenzoyl) amino-3-O-tetradecanoyl-4-O-sulfo-α-D-glucopyranoside] — lower, 91%
- CCCCCCCCCCC[C@@H](CC(=O)N[C@H]1CO[C@H](C)[C@@H](OS(=O)(=O)O)[C@@H]1OC(=O)CCCCCCCCc1ccccc1)OC(=O)CCCCCCCCc1ccccc1 [Compound (12), 2,6-deoxy-2-[3S-(9-phenylnonanoyloxy)tetradecanoyl]amino-3-O-(9-phenylnonanoyl)-4-O-sulfo-1,5-anhydro-D-glucitol] — higher, 94%
- CCCCCCCCCCCC(CC(=O)NC1CCCC(OS(=O)(=O)O)C1OC(=O)CCCCCCCCc1ccccc1)OC(=O)CCCCCCCCc1ccccc1 (stereo not drawn) [Compound (13), 3(syn)-[3RS-(9-phenylnonanoyloxy)tetradecanoyl]amino-2RS (anti)-(9-phenylnonanoyloxy)cyclohexa-1RS-yl-O-sulfonic acid] — lower, 86%
- CCCCCCCCCCC[C@@H](CC(=O)N[C@H]1C(O)O[C@H](CO)[C@@H](OS(=O)(=O)[O-])[C@@H]1OC(=O)CCCCCCCCc1ccccc1)OC(=O)CCc1ccccc1.[Na+] (stereo partly drawn) [Compound (14), 2-Deoxy-2-[3S-[3-phenylpropanoyloxy]tetradecanoyl]amino-3-O-[9-phenylnonanoyl]4-O-sulfo-D-glucopyranose sodium salt] — higher, 96%
- CCCCCCCCCCC[C@@H](CC(=O)N[C@H]1C(O)O[C@H](CO)[C@@H](OS(=O)(=O)[O-])[C@@H]1OC(=O)CCc1ccccc1)OC(=O)CCCCCCCCc1ccccc1.[Na+] (stereo partly drawn) [Compound (15), 2-Deoxy-2-[3S-[9-phenylnonanoyloxy]tetradecanoyl]amino-3-O-[3-phenylpropanoyl]-4-O-sulfo-D-glucopyranose sodium salt] — higher, 93%
- CCCCCCCCC[C@@H](CC(=O)N[C@H]1C(O)O[C@H](CO)[C@@H](OS(=O)(=O)[O-])[C@@H]1OC(=O)CCCCCCCCc1ccccc1)OC(=O)CCCCCCCCc1ccccc1.[Na+] (stereo partly drawn) [Compound (16), 2-Deoxy-2-[3S-[9-phenylnonanoyloxy]dodecanoyl]amino-3-O-[9-phenylnonanoyl]4-O-sulfo-D-glucopyranose sodium salt] — the same, 92%
- CCCCCCCCCCCCC[C@@H](CC(=O)N[C@H]1C(O)O[C@H](CO)[C@@H](OS(=O)(=O)[O-])[C@@H]1OC(=O)CCCCCCCCc1ccccc1)OC(=O)CCCCCCCCc1ccccc1.[Na+] (stereo partly drawn) [Compound (17), 2-Deoxy-2-[3S-[9-phenylnonanoyloxy]hexadecanoyl]amino-3-O-[9-phenylnonanoyl]4-O-sulfo-D-glucopyranose sodium salt] — higher, 93%
- CCCCCCCCCCC[C@H](CC(=O)N[C@H]1C(O)O[C@H](CO)[C@@H](OS(=O)(=O)[O-])[C@@H]1OC(=O)CCCCCCCCc1ccccc1)OC(=O)CCCCCCCCc1ccccc1.[Na+] (stereo partly drawn) [Compound (18), 2-Deoxy-2-R[3-[9-phenylnonanoyloxy]tetradecanoyl]amino-3-O-[9-phenylnonanoyl]4-O-sulfo-D-glucopyranose sodium salt] — lower, 91%
